# Laboratory results as given in publication PMC2917589 (Nature chemical biology, 2010).
# Assays:
# [1] = target: myosin V (S1) 6IQ construct (Gallus gallus, UniProt Q02440); format: binding
# [2] = target: myosin V (S1) 1IQ construct (Gallus gallus, UniProt Q02440); format: binding
# Chain of myosin V (S1) 1IQ construct (Q02440 whole entry, looked up): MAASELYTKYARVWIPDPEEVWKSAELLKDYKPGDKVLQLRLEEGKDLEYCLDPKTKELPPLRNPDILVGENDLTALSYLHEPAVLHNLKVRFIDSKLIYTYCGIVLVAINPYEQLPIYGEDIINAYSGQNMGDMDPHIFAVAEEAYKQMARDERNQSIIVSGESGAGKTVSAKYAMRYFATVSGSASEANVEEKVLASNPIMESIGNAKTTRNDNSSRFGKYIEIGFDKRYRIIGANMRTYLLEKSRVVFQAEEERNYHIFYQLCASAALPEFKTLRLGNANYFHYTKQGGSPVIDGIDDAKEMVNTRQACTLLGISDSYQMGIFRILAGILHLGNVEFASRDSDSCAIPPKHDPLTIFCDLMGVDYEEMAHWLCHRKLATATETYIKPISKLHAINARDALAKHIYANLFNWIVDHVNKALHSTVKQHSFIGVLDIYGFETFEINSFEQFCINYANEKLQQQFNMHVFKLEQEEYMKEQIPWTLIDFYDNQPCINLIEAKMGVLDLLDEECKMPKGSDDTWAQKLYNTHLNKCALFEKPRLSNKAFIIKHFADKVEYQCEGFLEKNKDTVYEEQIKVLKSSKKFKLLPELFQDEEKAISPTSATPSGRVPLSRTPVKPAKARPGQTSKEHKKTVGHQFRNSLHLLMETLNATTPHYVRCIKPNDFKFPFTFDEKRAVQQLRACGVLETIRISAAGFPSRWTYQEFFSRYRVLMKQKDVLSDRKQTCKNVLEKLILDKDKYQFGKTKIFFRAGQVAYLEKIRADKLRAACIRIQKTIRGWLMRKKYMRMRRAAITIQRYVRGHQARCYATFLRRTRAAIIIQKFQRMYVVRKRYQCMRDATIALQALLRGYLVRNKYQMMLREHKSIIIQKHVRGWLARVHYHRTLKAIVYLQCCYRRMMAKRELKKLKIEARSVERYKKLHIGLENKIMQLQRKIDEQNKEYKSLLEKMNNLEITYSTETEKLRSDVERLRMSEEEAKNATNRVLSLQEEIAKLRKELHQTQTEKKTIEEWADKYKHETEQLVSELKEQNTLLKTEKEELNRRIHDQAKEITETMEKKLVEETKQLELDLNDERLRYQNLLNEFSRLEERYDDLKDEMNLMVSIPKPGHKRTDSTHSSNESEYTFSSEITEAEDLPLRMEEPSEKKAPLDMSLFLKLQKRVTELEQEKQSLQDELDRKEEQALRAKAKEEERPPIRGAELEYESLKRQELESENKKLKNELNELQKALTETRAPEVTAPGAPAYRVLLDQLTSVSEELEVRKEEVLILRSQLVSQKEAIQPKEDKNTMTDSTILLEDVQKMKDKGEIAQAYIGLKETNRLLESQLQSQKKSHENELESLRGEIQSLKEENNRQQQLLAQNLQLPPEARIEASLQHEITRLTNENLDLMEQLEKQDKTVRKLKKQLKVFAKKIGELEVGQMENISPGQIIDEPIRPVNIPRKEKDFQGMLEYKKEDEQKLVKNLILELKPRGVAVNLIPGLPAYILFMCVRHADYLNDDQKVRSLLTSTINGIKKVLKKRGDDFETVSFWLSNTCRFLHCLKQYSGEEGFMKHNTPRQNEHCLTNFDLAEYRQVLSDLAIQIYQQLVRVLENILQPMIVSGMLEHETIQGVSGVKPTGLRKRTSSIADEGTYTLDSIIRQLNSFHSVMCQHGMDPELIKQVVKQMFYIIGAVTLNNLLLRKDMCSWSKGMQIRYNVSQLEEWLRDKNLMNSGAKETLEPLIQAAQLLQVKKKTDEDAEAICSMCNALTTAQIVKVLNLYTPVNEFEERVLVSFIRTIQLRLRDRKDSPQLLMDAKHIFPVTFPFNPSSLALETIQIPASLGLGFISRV
# Chain of myosin V (S1) 6IQ construct (Q02440 whole entry, looked up): as above
smiles,measurement,setting,value
Nc1ncnc2c1ncn2[C@@H]1O[C@H](COP(=O)(O)OP(=O)(O)O)[C@@H](O)[C@H]1O [ADP],Kd,[1],~1000 nM
same,Kd,[2],2400 ± 1700 nM
